Results on 8 compounds are retold here after US11141475B2, “Inactivating pathogens and producing highly immunogenic inactivated vaccines using a dual oxidation process” (priority 2016, dated 2021).

For data set [1], the system named is CHIKV E1 and E2 structural proteins. Kind of data set: CHIKV-specific sandwich ELISA with two neutralizing monoclonal antibodies (antigenicity). The data set is classed as binding, Chikungunya virus. Particulars: for CHIKV antigenicity (retained neutralizing epitopes, ELISA): treated 20 hours at room temperature (FIG. 19A). On the technique in general: An ELISA detects its analyte on a solid surface through an enzyme-linked reagent.

In data set [2] the test system is YFV envelope structural protein.
For the next data set, the system named is DENV2. Kind of data set: DENV2 inactivation kinetics at increasing total viral protein (PFU assay). Particulars: 3% H2O2, or 0.01% H2O2 and 1 μM CuCl2, room temperature. It is filed as cell-based, dengue virus 2.
Data set [3] relates to DENV4 envelope structural protein. Kind of data set: DENV-specific sandwich ELISA on treated DENV4 (antigenicity). It is filed as binding, dengue virus serotype 4. Particulars: for DENV4 antigenicity (retained neutralizing epitopes, ELISA): treated 20 hours at room temperature (FIG. 19B); for DENV4 antigenicity in the dual-oxidation system (ELISA): H2O2 0.01%, CuCl2 1 μM, each compound 10 μM, 20 hrs post-inactivation.

Data set [4] concerns C. coli. Put plainly: Campylobacter morphology after inactivation (Gram safranin stain). Details: species or system Campylobacter coli. To be noted: 3% H2O2 for 5 hours at room temperature, or dual oxidation.
Data set [5] concerns DENV3 envelope structural protein. Put plainly: DENV-specific sandwich ELISA on treated DENV3 (antigenicity). It is filed as binding, dengue virus 3. Particulars: H2O2 0.01%, range of CuCl2 and FeCl3 concentrations.
Another data set concerns DENV4. The data set is classed as cell-based, dengue virus serotype 4.
In another data set the test system is CHIKV. The data set is classed as cell-based, Chikungunya virus.
The next data set relates to Listeria monocytogenes. Kind of data set: Listeria monocytogenes inactivation (CFU/mL). The data set is classed as cell-based. Particulars: added to H2O2 0.10%, CuCl2 10 μM; MZ 100 μM.
In another data set the test system is vaccinia virus. The data set is classed as cell-based. To be noted: added to H2O2 0.002%, CuCl2 1 μM; MZ 10 μM; PBS pH 7.5.
Data set [6] concerns C. coli. Put plainly: Campylobacter coli inactivation kinetics (viable bacteria, CFU/mL). The data set is classed as cell-based. Particulars: added to H2O2 0.01%, CuCl2 2 μM; MZ 20 μM.
The next data set concerns smallpox. Particulars: in vivo; cited from earlier work.
Another data set has as its system Shigella dysenteriae. Kind of data set: Shigella dysenteriae inactivation (CFU/mL). The data set is classed as cell-based. To be noted: added to H2O2 0.10%, CuCl2 10 μM; MZ 100 μM.
The conditions of data set [7]: human, in vivo, 152 mg/kg; cited from earlier work.

As for `OO` [3% H2O2, hydrogen peroxide], in data set [1] (3% H2O2 under standard conditions (7 hours, room temperature)), the “antigenicity, in vitro potency testing using envelope-specific MAbs” value is “nearly complete loss of antigenicity”. Moreover, in [1], the “CHIKV antigenicity (retained neutralizing epitopes, ELISA)” value is “loss of neutralizing epitopes”. The “YFV antigenicity (neutralizing epitopes)” value in data set [2] is reported as “severe damage to neutralizing epitopes”. For the same compound, in the data set with DENV2, the “dependence of virus inactivation kinetics on total viral protein concentration” value is reported as “protein concentration-independent”. In addition, the “DENV4 antigenicity (retained neutralizing epitopes, ELISA)” value in [3] is on record as “loss of neutralizing epitopes”. Moreover, the “bacterial morphology after inactivation” value in the data set with C. coli [4] is on record as “substantially damaged with clear changes in morphology”.
As for `[Cl][Fe]([Cl])[Cl]` [FeCl3], the “DENV3 antigenicity with combinations of CuCl2 and FeCl3 (ELISA)” value in data set [5] is on record as “enhanced antigenicity”.
For the compound `CCCN1C(=O)C(=NNC(N)=S)c2ccccc21` [N-propylisatin β-thiosemicarbazone], the “DENV4 antigenicity in the dual-oxidation system (ELISA)” value (“DENV4 antigenicity … (ELISA)” for short) in [3] was “superior antigenicity”. Moreover, the “DENV4 inactivation in the dual-oxidation system (plaque assay)” value (shortened to “DENV4 inactivation … (plaque assay)”) with DENV4 is listed as “enhanced rates of inactivation”.
On to `NC(=S)NN=C1C(=O)Nc2ccccc21` [isatin β-thiosemicarbazone], for which, in data set [3], the “DENV4 antigenicity … (ELISA)” value was “superior antigenicity”. Also, the “DENV4 inactivation … (plaque assay)” value with DENV4 is given as “enhanced rates of inactivation”.
For `O=C1Nc2ccccc2C1=O` [isatin], in that order: “protection of protein antigens from oxidative damage” and “do not appear to increase the rate of inactivation”.
Consider `CN1C(=O)/C(=N\NC(N)=S)c2ccccc21` [methisazone, N-methylisatin β-thiosemicarbazone], for which the “CHIKV retained antigenicity with increasing methisazone relative to the transition metal” value in data set [1] (H2O2 0.02%, CuCl2 1 μM, ELISA at 20 hrs) was “concomitant improvements”. Further, the “CHIKV antigenicity (retained neutralizing epitopes, ELISA)” value in [1] is “maintained or significantly improved antigenicity”. In the data set on CHIKV, the “CHIKV inactivation in the absence of copper” value is reported as “minimal impact”; the “CHIKV inactivation rates with increasing methisazone relative to the transition metal” value was “concomitant improvements”; the “increase of the rate of inactivation vs dual oxidation alone, CHIKV” value is 10- to 20 fold; the “rate of dual-oxidation-based inactivation, CHIKV” value is listed as “substantially increase the rate”. Also, the “inactivation rate of Listeria monocytogenes” value in the data set with Listeria monocytogenes was “substantially enhanced inactivation rates”. In the data set with vaccinia virus, the “rate of dual-oxidation-based inactivation, vaccinia virus” value is “substantially increase the rate”. In addition, the “inactivation rate of Campylobacter coli” value in the data set on C. coli [6] is listed as “substantially enhanced inactivation rates”. Also, the “DENV4 antigenicity (retained neutralizing epitopes, ELISA)” value in [3] is given as “maintained or significantly improved antigenicity”. Further, in the data set on smallpox, the “close contacts who developed mild smallpox” value was 0.27%, the “close contacts who developed mild smallpox (cases/contacts)” value is on record as 3/1101, the “deaths among close contacts” value is on record as “no deaths” and the “non-vaccinated subjects who contracted smallpox” value is on record as 2%. In addition, the “non-vaccinated subjects who contracted smallpox (cases/subjects)” value in the data set on smallpox is given as 2/102. Moreover, the “inactivation rate of Shigella dysenteriae” value in the data set with Shigella dysenteriae is on record as “substantially enhanced inactivation rates”. The serious adverse events result in data set [7] was “lack of serious adverse events”. Moreover, in the data set on DENV4, the “DENV4 inactivation in the absence of copper” value was “minimal impact”; the “increase of the rate of inactivation vs dual oxidation alone, DENV4” value was 10- to 20 fold; the “rate of dual-oxidation-based inactivation, DENV4” value is “substantially increase the rate”.
`NNC(N)=O` [semicarbazide]: the “DENV4 antigenicity … (ELISA)” value in data set [3] is reported as “protection of protein antigens from oxidative damage”. Also, the “DENV4 inactivation … (plaque assay)” value in the data set with DENV4 is recorded as “do not appear to increase the rate of inactivation”.
In the same order, the values of `NNC(N)=S` [thiosemicarbazide] are “superior antigenicity” and “enhancement of inactivation”.
